The source of these data is paper PMC9646721, “Alkaloid binding to opium poppy major latex proteins triggers structural modification and functional aggregation” (Nature Communications, 2022).

Converted amounts (≈) assume the structure as drawn. “And” between values parts separate entries of the source, which are not always exact repeats. Identical values can stand only once. Like-named read-outs stand apart in the source and are kept apart here.

The target in data set [1] is PR10-12. The note with it: read-out: Kd (ANS-protein, apparent); ANS 10 µM fixed, protein 0 to 100 µM; CBS pH 5.5; one-site hyperbolic model.
Description: (§4) 8-anilino-1-naphthalenesulfonic acid (ANS) fluorescence binding curves and the binding-induced reduction in ANS fluorescence resulting from competition with tested ligands across a range of concentration facilitated the measurement of IC50 and an estimate of Kd values using the binding models and procedures described previously[70]. […] ANS was dissolved in dimethylsufoxide at a concentration of 20 mM, stored at −20 °C until dilution and protected from exposure to light. […] 40 µl of the ANS solution and 40 µl of each MLP/PR10 protein solution were combined to 80 µl final reaction volumes, which were incubated at 21 °C for 10 min to allow equilibration of binding. Triplicate 18-µl aliquots were withdrawn from each 80 µl reaction, transferred to optically clear PCR tubes (Diamed, Canada) and ANS fluorescence was measured following an additional 3-min incubation at 30 °C using a Qiagen Rotor-gene Q 6-plex with excitation and emission filters of 365 ± 20 nm and 460 ± 20 nm, respectively. An identical reaction series whereby protein was omitted from the mixtures was measured under identical conditions and trace fluorescence was subtracted from each MLP/PR10 protein-containing sample. […]
Data set [2] concerns the target T1, NISO (Papaver somniferum, UniProt P0DYP9). Briefly: ANS fluorescence binding curve (direct ANS-protein affinity). More on the design: made in house; host or cells: E. coli ArcticExpress (DE3). The following applies: Kd (ANS-protein, apparent), ANS 10 µM fixed, protein 0 to 100 µM; CBS pH 5.5; one-site hyperbolic model.
Description: (§5) 8-anilino-1-naphthalenesulfonic acid (ANS) fluorescence binding curves and the binding-induced reduction in ANS fluorescence resulting from competition with tested ligands across a range of concentration facilitated the measurement of IC50 and an estimate of Kd values using the binding models and procedures described previously[70]. […] ANS was dissolved in dimethylsufoxide at a concentration of 20 mM, stored at −20 °C until dilution and protected from exposure to light. […] 40 µl of the ANS solution and 40 µl of each MLP/PR10 protein solution were combined to 80 µl final reaction volumes, which were incubated at 21 °C for 10 min to allow equilibration of binding. […] An identical reaction series whereby protein was omitted from the mixtures was measured under identical conditions and trace fluorescence was subtracted from each MLP/PR10 protein-containing sample. Each data set was scaled so that the maximum observed fluorescence corresponded to 100% and individual data points were plotted, and a rectangular hyperbolic ligand binding function was fit, using least-squares analysis (Prism 5 software, Graphpad, USA). Experiments were repeated at least twice with independently prepared protein.
Data set [3] addresses PR10-4. The note with it: read-out: Kd (ANS-protein, apparent); ANS 10 µM fixed, protein 0 to 100 µM; CBS pH 5.5; one-site hyperbolic model.
Description: as §4
In data set [4] the target is T2, MLP15 (Papaver somniferum, UniProt P19825).
T2 sequence (P19825 1-159): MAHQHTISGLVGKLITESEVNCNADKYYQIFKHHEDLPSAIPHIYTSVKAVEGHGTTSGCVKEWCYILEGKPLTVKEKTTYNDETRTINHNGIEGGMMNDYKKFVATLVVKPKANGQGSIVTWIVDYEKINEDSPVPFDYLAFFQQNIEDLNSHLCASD
In words: ANS fluorescence binding curve (direct ANS-protein affinity). Also noted: made in house; host or cells: E. coli ArcticExpress (DE3). The following applies: Kd (ANS-protein, apparent), ANS 10 µM fixed, protein 0 to 100 µM; CBS pH 5.5; one-site hyperbolic model.
Description: as §5

For data set [5], the target named is T3, THS2 (Papaver somniferum, UniProt A0A2U9GGW3). The description is as above. Also noted: made in house; host or cells: E. coli ArcticExpress (DE3). The following applies: Kd (ANS-protein, apparent), ANS 10 µM fixed, protein 0 to 100 µM; CBS pH 5.5; one-site hyperbolic model.
T3 sequence (A0A2U9GGW3 whole entry): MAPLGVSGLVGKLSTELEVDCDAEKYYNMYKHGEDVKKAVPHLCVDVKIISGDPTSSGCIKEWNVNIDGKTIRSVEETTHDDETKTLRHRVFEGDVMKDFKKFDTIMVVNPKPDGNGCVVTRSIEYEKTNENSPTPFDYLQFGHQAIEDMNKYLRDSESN
Description: as §5
Data set [6] deals with T4, PR10-10 (Papaver somniferum, UniProt A0A9Y2YA81).
T4 sequence (A0A9Y2YA81 1-158): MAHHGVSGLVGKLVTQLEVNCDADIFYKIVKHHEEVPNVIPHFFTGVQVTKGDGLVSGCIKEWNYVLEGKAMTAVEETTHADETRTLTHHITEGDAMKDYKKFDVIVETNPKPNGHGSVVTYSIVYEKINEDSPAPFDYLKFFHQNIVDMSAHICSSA
The description is as above. The following applies: weak signal, Kd not determined.
Description: as §5

Data set [7] deals with T2, MLP15. In words: Isothermal titration calorimetry. Type of data set: binding. The note with it: ITC, CBS pH 5.5, 25 °C. More on the design: made in house; host or cells: E. coli ArcticExpress (DE3). On the procedure: ITC experiments were conducted using a Microcal VP instrument (Malvern Pananalytical, Malvern, UK). […] Dialysis was carried out in boiled Spectra/Por 1 6–8 kDa MWCO 0.32 ml/cm (Spectrum Labs, USA) tubing thoroughly washed with either buffer before use. The second 1000-fold volume of dialysis buffer was filtered and degassed using a reusable bottle-top filtration apparatus (Nalgene, USA) with disposable […] cellulose filters (VWR, Canada) prior to storage at 4 °C. Ligands were dissolved in the filtered dialysis buffer at 21 °C for approximately one hour, and any insoluble material was removed by repeated centrifugation at 21,000 × g for 10 min. […] Prior to ITC, which was initiated immediately following dialysis, the protein solutions were centrifuged at 17,000 × g and 4 °C for 30 min. Any precipitate was separated from the remaining soluble protein fraction which was quantified by absorption at A280nm and diluted with filtered dialysis buffer immediately before use.
(§1) Thermograms were recorded at 25 °C, with a reference power of 10 (dpu/sec) and monitoring of 30 injections of 9 µl BIA ligand solutions into a sample cell containing 1.4 ml of an MLP/PR10 protein solution, with 300 seconds between injections. […] To ensure that we report only the heat of reaction for each interaction, independent titrations of ligand into buffer, and buffer into protein solutions, were used to calculate and then subtract heats of dilution. After subtraction, binding isotherms were analyzed in MicroCal Origin 7 (MicroCal, USA) by fitting a single-site binding model using non-linear least squares regression analysis repeated until convergence. […] Each ITC experiment was repeated 2 to 4 times.
In general terms: In ITC the heat of successive injections is recorded.

Data set [8] deals with MLP2. The note with it: read-out: Kd (ANS-protein, apparent); ANS 10 µM fixed, protein 0 to 100 µM; CBS pH 5.5; one-site hyperbolic model.
Description: as §4
The target of data set [9] is T1, NISO. Briefly: ANS displacement assay.
Description: (§6) 8-anilino-1-naphthalenesulfonic acid (ANS) fluorescence binding curves and the binding-induced reduction in ANS fluorescence resulting from competition with tested ligands across a range of concentration facilitated the measurement of IC50 and an estimate of Kd values using the binding models and procedures described previously[70]. […] ANS was dissolved in dimethylsufoxide at a concentration of 20 mM, stored at −20 °C until dilution and protected from exposure to light. […] 40 µl of the ANS solution and 40 µl of each MLP/PR10 protein solution were combined to 80 µl final reaction volumes, which were incubated at 21 °C for 10 min to allow equilibration of binding. Triplicate 18-µl aliquots were withdrawn from each 80 µl reaction, transferred to optically clear PCR tubes (Diamed, Canada) and ANS fluorescence was measured following an additional 3-min incubation at 30 °C using a Qiagen Rotor-gene Q 6-plex with excitation and emission filters of 365 ± 20 nm and 460 ± 20 nm, respectively. An identical reaction series whereby protein was omitted from the mixtures was measured under identical conditions and trace fluorescence was subtracted from each MLP/PR10 protein-containing sample. Each data set was scaled so that the maximum observed fluorescence corresponded to 100% and individual data points were plotted, and a rectangular hyperbolic ligand binding function was fit, using least-squares analysis (Prism 5 software, Graphpad, USA). Experiments were repeated at least twice with independently prepared protein.
(§7) Displacement of ANS is associated with reduced fluorescence. […] Briefly, 40 µl of 20 µM ANS and individual MLP/ PR10 protein solutions were combined in CBS buffer, pH 5.5, incubated at 21 °C for 5 min, mixed with 40 µl of separate 0 to 6 mM BIA solutions in CBS buffer, pH 5.5, and the 80 µl reactions were subsequently incubated for 10 min at 21 °C. Fluorescence was measured as described above, including subtraction of any fluorescence in a blank series whereby protein was omitted. […] Each experiment was repeated at least twice with independently prepared MLP/PR10 proteins and BIA ligand.
Data set [10] is described as follows: Ligand solubility threshold in ITC buffer. In kind it is physicochemical. The following applies: filtered dialysis buffer (CBS, 21 °C, aqueous buffer, thermodynamic from solid); pH 5.5, ITC buffer. As for the experimental part: ITC experiments were conducted using a Microcal VP instrument (Malvern Pananalytical, Malvern, UK). Recombinant MLP/PR10 protein preparation involving production in Escherichia coli followed by cobalt-affinity chromatography was optimized to yield relatively high purity in a single step as determined by SDS-PAGE and colloidal Coomassie blue silver staining. The less than 48 h decrease in atmospheric oxygen exposure generated high-quality proteins with reduced precipitate. […] Eluates were twice dialysed to equilibrium (i.e., 10–12 h at 4 °C) against a 1000-fold (2–4 L) volume of PBS, pH 7.4 (25 mM sodium phosphate, 50 mM NaCl) or CBS, pH 5.5, resulting in a theoretical million-fold dilution of undesired small molecules (e.g., <0.2 µM imidazole). […] Any precipitate was separated from the remaining soluble protein fraction which was quantified by absorption at A280nm and diluted with filtered dialysis buffer immediately before use.
Thermograms were recorded at 25 °C, with a reference power of 10 (dpu/sec) and monitoring of 30 injections of 9 µl BIA ligand solutions into a sample cell containing 1.4 ml of an MLP/PR10 protein solution, with 300 seconds between injections. […] After subtraction, binding isotherms were analyzed in MicroCal Origin 7 (MicroCal, USA) by fitting a single-site binding model using non-linear least squares regression analysis repeated until convergence. […]

Data set [11] is described as follows: Sucrose density-gradient fractionation of Przemko latex with exogenous alkaloid. More on the design: species or system Papaver somniferum. The following applies: exogenous alkaloid (420-460 mM) added to 80 µL Przemko latex, 14-66% sucrose gradient.
Description: Sucrose solutions (66%, 58%, 46%, 38%, 30%, 24 and 14% [w/v]) were prepared in 50 mM HEPES, pH 7.0, containing 5 mM EDTA. Continuous sucrose density gradients were prepared by layering the solutions (3 mL of 66, 58 and 46%, 6 mL of 38%, and 7 mL of 30, 24 and 14% [w/v] sucrose) in 38-mL thin-wall ultracentrifuge tubes (Beckman Coulter, USA) followed by equilibration at 4 °C for 24 h. Fresh latex (80 µL) was collected from decapitated unripe seed capsules in 1.5-mL microcentrifuge tubes and stored on ice for immediate loading on the sucrose gradients. […] Samples were incubated on ice for 30 min then diluted in 2 mL of latex suspension buffer (500 mM mannitol, 50 mM HEPES, pH 7.0, 5 mM EDTA, 1 mM PMSF) and layered onto sucrose density gradients, which were then centrifuged in an AH-629 rotor (Sorvall, USA) for 3 h at 100,000 × g at 4 °C. The bottom of the ultracentrifuge tube was punctured by a flame-heated 21 G needle and a total of 22 fractions (~1.7 mL) were collected manually. The refractive index of each fraction was measured by a digital refractometer (Reichert, USA) and converted to density. Protein concentration was determined by Bradford assay (BioRad, USA) and samples were stored at −80 °C until use.
Data set [12] addresses T2, MLP15. Briefly: ANS displacement assay.
Description: as §6, §7
Data set [13] deals with T4, PR10-10. Briefly: Isothermal titration calorimetry. Type of data set: binding. The following applies: for Kd: ITC. As for the experimental part:
ITC experiments were conducted using a Microcal VP instrument (Malvern Pananalytical, Malvern, UK). […] Eluates were twice dialysed to equilibrium (i.e., 10–12 h at 4 °C) against a 1000-fold (2–4 L) volume of PBS, pH 7.4 (25 mM sodium phosphate, 50 mM NaCl) or CBS, pH 5.5, resulting in a theoretical million-fold dilution of undesired small molecules (e.g., <0.2 µM imidazole). Dialysis was carried out in boiled Spectra/Por 1 6–8 kDa MWCO 0.32 ml/cm (Spectrum Labs, USA) tubing thoroughly washed with either buffer before use. The second 1000-fold volume of dialysis buffer was filtered and degassed using a reusable bottle-top filtration apparatus (Nalgene, USA) with disposable […] cellulose filters (VWR, Canada) prior to storage at 4 °C. Ligands were dissolved in the filtered dialysis buffer at 21 °C for approximately one hour, and any insoluble material was removed by repeated centrifugation at 21,000 × g for 10 min. […] Prior to ITC, which was initiated immediately following dialysis, the protein solutions were centrifuged at 17,000 × g and 4 °C for 30 min. Any precipitate was separated from the remaining soluble protein fraction which was quantified by absorption at A280nm and diluted with filtered dialysis buffer immediately before use.
as §1

Data set [14] addresses PR10-4. In words: ANS displacement assay. Type of data set: binding, Papaver somniferum. The source says:
(§2) Eluates were store separately on ice.
(§3) Displacement of ANS is associated with reduced fluorescence.

Data set [15] concerns the target MLP2. In words: ANS displacement assay. Type of data set: binding, Papaver somniferum.
Description: as §2, §3

The target of data set [16] is PR10-12. Briefly: ANS displacement assay. Type of data set: binding, Papaver somniferum.
Description: as §2, §3

In data set [17] the target is T3, THS2. In words: ANS displacement assay.
Description: as §6, §7
Data set [18] addresses T4, PR10-10. Briefly: ANS displacement assay. In kind it is binding. The following applies: ANS displacement dose-response fit.
Description: as §2, §3

The target in data set [19] is T1, NISO. Also noted: made in house; host or cells: E. coli ArcticExpress (DE3). The following applies: read-out: Km app (substrate kinetics); cited from earlier work.
A further data set deals with THS. The note with it: cited from earlier work.
Setting [20] is: 10 µM protein and 10 µM ANS, CBS pH 5.5.
Where [21] appears, read: from average IC50 and PR10-ANS Kd, competitive inhibition assumed, read-out: Estimated Kd.

T1 sequence (P0DYP9 entry or part of it): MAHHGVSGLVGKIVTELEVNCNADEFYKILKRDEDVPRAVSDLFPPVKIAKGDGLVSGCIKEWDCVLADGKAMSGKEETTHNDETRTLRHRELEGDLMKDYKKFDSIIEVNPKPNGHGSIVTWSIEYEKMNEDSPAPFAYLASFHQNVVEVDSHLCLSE

As to `O=S(=O)(O)c1cccc2cccc(Nc3ccccc3)c12` [ANS, 8-anilinonaphthalene-1-sulfonic acid], the Kd on PR10-12 [1] was 356 ± 139 µM; at NISO [2] it was 61 µM and 60.5 µM; on PR10-4 [3] it was 107 ± 15.3 µM; on MLP15 [4], 78 µM and 78.4 µM; on THS2 [5], 21 µM and 20.9 µM; on MLP15 [7] (single-site model), 55.3 ± 2.8 µM. In addition, the Kd at MLP2 [8] turned out to be 28.6 ± 3.9 µM. Besides, on PR10-10 [6], the “ANS binding to PR10-10 (in words)” value is recorded as “did not bind ANS in a typical manner”. Moreover, the ΔH on MLP15 [7] was -14.69 ± 0.4972 kcal/mol. This compound also yielded a ΔS on MLP15 [7] of -29.8 cal/mol/˚K. Besides, the N at MLP15 [7] (single-site model) came to 1.06 ± 0.0244.

A word on the IC50: it is the midpoint of a concentration-inhibition curve. A high value points to lower potency. As a reminder, the solubility is the concentration that dissolves in the medium under given conditions. Read a low solubility as a poorly soluble substance. For `COc1ccc(Cc2nccc3cc(OC)c(OC)cc23)cc1OC` [Papaverine, papaverine], the Kd is 82 µM at NISO [9]; 265 µM at MLP15 [12]; roughly 225 µM on PR10-10 [13] (CBS buffer, Fig. 4b prints no unit, read-out: Kd); 225 µM on PR10-10 [13] (CBS pH 5.5, printed in brackets beside *, read-out: Kd (estimate, low enthalpy system)); 38.1 µM at PR10-4 [14] (setting [21]); 45.5 µM at MLP2 [15] (setting [21]). Besides, the Kd is 154 µM on PR10-12 [16] (setting [21]) and 333 µM at THS2 [17]. Moreover, the IC50 is 96 µM and 95.5 µM on NISO [9] (IC50, NISO, 10 µM protein and 10 µM ANS, CBS pH 5.5); 299 µM on MLP15 [12] (IC50, MLP15, 10 µM protein and 10 µM ANS, CBS pH 5.5); 41.7 µM on PR10-4 [14] (setting [20]); 61.4 µM on MLP2 [15] (setting [20]); 158 µM at PR10-12 [16] (setting [20]); 493 µM on THS2 [17] (IC50, THS2, 10 µM protein and 10 µM ANS, CBS pH 5.5). For the same compound, the Log10IC50 at NISO [9] (NISO, 10 µM protein and 10 µM ANS, CBS pH 5.5) was 1.98 ± 0.05; on MLP15 [12] (MLP15, 10 µM protein and 10 µM ANS, CBS pH 5.5), 2.48 ± 0.08; with PR10-4 [14] (setting [20]) it was 1.62 ± 0.05; in the data set with MLP2 [15] (setting [20]), 1.79 ± 0.07; in the data set on PR10-12 [16] (setting [20]), 2.20 ± 0.09; at THS2 [17] (THS2, 10 µM protein and 10 µM ANS, CBS pH 5.5), 2.69 ± 0.71. Besides, the “Hill Slope” value on NISO [9] (NISO, ANS displacement dose-response fit) is reported as -1.20 ± 0.05; at MLP15 [12] (MLP15, ANS displacement dose-response fit) it was -1.21 ± 0.08; at THS2 [17] (THS2, ANS displacement dose-response fit), -0.88 ± 0.34; at PR10-10 [18] it was -0.36 ± 0.27. In [10], this compound yielded a solubility of 1200 µM (≈ 407 µg/mL). Further, in [11], the “formation of dense aggregate bands in gradient” value is recorded as “one or more visibly insoluble dense aggregate bands”. Further, the “heat change of protein-ligand interaction after subtraction of the blank” value at PR10-10 [13] (ITC thermogram, pH 5.5) is -0.2 µcal/s.

For orientation: Km means the substrate concentration at which the rate is half of its maximum. Take `COc1ccc2c3c1O[C@H]1C(=O)C=C[C@H]4[C@@H](C2)N(C)CC[C@]314` [codeinone]: at NISO [19], the Michaelis-Menten constant (Km) is 48 µM.

As to `COC1=C[C@]23CCN(C)[C@H](Cc4ccc(OC)c(O)c42)C3=C[C@@H]1OC(C)=O` [salutaridinol-7-O-acetate], the “KA (substrate kinetics)” value in the data set with THS is 22 µM.
